According to patent US20240254087A1, “SELECTIVE, PARTIAL, AND ARRESTIN-BIASED 5-HT2A AGONISTS WITH UTILITY IN VARIOUS DISORDERS” (Saint Joseph's University, priority 2021, published 2024):

Key:
5-HT2A [1] = test: Ca2+ flux assay, 5-HT2A; format: cell-based, human; conditions: Gq/11 Ca2+ mobilization; higher number = skewed towards 5-HT2A
5-HT2A [2] = target: T1, 5-HT2A (Homo sapiens, UniProt P28223); test: Ca2+ flux assay, 5-HT2A; format: cell-based; parameters: expressed in transfected cells; conditions: for EC50: 5-HT2A EC50, nM; for EC50 / 5-HT2A Emax % 5-HT: Ca2+ flux; for Emax: read-out: 5-HT2A Emax % 5-HT, Ca2+ flux
5-HT2B [3] = target: T2, 5-HT2B (Homo sapiens, UniProt P41595); test: Ca2+ flux assay, 5-HT2B; format: cell-based; parameters: expressed in transfected cells; conditions: Ca2+ flux; for Emax: read-out: 5-HT2B Emax % 5-HT
5-HT2C [4] = target: T3, 5-HT2C (Homo sapiens, UniProt P28335); test: Ca2+ flux assay, 5-HT2C; format: cell-based; parameters: expressed in transfected cells; conditions: for EC50: 5-HT2C EC50, nM; for Emax: read-out: 5-HT2C Emax % 5-HT
T3 sequence (P28335 33-458): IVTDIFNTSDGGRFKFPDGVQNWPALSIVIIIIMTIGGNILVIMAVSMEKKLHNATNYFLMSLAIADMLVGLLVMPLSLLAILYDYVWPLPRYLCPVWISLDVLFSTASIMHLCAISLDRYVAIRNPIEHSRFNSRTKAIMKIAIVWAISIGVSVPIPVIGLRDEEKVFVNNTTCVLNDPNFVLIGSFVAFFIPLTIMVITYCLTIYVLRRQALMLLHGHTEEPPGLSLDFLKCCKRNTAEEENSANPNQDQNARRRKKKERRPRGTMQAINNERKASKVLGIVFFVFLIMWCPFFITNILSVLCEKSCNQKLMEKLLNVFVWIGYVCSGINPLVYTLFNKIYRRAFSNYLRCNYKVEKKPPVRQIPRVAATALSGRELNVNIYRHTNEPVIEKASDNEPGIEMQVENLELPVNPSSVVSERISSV

5-HT1A = target: T4, 5-HT1A (Homo sapiens, UniProt P08908); test: Competitive radioligand binding (NIMH PDSP)
T4 sequence (P08908 1-422): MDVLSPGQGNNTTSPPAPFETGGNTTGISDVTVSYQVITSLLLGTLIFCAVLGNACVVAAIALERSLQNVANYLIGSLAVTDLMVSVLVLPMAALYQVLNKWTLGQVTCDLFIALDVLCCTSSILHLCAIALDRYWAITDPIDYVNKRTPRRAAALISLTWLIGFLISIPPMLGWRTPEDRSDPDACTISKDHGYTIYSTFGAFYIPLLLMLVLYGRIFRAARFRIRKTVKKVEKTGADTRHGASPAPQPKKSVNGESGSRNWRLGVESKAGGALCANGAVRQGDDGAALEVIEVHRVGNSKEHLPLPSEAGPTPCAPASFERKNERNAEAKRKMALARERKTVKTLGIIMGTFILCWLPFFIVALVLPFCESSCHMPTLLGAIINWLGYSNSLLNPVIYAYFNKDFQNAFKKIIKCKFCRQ
Procedure: (§1) Method 1: Competitive binding experiments were performed by the National Institute of Mental Health Psychoactive Drug Screening Program (NIMH PDSP) using described methods or 5-HT2A experiments performed using [3H]-ketanserin displacement in human 5-HT2A expressing membranes. Target compounds were dissolved in DMSO and an initial screen performed to assess displacement of the radioligand from target receptors at a concentration of 10,000 nM. […] For the Ki experiments, compounds were always tested in triplicate on separate plates. Each plate also contained a known ligand for the receptor as a positive control.

5-HT1B = 5-HT1B (Homo sapiens, UniProt P28222); test: Competitive radioligand binding (NIMH PDSP)
Procedure: as §1

5-HT1D = 5-HT1D (Homo sapiens, UniProt P28221); test: Competitive radioligand binding (NIMH PDSP)
Procedure: as §1

5-HT1e = 5-HT1e (Homo sapiens, UniProt P28566); test: Competitive radioligand binding (NIMH PDSP)
Procedure: as §1

5-HT2A [5] = target: T1, 5-HT2A; test: Competitive radioligand binding (NIMH PDSP)
Procedure: as §1

5-HT3 = target: T5, 5-HT3 (Homo sapiens, UniProt P46098); test: Competitive radioligand binding (NIMH PDSP)
T5 sequence (P46098 24-478): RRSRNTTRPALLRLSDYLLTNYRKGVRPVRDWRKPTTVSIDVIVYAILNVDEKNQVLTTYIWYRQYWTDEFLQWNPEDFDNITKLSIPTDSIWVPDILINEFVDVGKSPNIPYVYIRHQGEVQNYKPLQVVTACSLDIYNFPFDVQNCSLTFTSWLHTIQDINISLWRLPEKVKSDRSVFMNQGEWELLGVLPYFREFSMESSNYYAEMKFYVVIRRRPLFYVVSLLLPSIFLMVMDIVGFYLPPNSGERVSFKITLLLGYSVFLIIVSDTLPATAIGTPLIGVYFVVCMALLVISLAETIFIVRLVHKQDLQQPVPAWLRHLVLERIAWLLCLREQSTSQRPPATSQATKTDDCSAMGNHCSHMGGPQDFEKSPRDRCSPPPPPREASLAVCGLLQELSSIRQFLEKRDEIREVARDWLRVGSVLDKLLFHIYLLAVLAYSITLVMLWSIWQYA
Procedure: as §1

5-HT2B [6] = target: T2, 5-HT2B; test: Competitive radioligand binding (NIMH PDSP); parameters: expressed in transfected cells
Procedure: as §1

5-HT2C [7] = target: T3, 5-HT2C; test: Competitive radioligand binding (NIMH PDSP); parameters: expressed in transfected cells
Procedure: as §1

T1 sequence (P28223 whole entry): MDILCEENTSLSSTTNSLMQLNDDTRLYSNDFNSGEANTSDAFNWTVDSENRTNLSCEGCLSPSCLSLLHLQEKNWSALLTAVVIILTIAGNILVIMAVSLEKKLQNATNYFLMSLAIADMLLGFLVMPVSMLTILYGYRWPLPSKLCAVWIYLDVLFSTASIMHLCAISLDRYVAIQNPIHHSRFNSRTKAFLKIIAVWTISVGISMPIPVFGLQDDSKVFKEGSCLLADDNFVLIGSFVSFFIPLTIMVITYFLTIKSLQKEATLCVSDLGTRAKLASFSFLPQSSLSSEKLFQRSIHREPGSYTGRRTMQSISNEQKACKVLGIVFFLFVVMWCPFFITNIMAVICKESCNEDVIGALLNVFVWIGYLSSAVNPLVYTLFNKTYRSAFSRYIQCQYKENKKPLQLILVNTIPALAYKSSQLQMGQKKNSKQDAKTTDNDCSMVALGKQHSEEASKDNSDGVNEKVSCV
Sequence of 5-HT1B (P28222 whole entry, species assumed): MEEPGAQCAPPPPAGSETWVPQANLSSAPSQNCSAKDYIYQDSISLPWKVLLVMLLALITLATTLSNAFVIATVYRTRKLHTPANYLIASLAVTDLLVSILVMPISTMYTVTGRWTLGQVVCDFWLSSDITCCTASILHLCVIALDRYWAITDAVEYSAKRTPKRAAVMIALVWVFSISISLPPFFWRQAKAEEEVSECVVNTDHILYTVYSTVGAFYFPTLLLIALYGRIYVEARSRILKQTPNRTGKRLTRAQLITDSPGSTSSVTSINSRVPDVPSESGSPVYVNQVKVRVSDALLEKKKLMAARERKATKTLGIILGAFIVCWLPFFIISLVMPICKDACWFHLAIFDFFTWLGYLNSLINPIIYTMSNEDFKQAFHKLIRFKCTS
Sequence of 5-HT1D (P28221 whole entry, species assumed): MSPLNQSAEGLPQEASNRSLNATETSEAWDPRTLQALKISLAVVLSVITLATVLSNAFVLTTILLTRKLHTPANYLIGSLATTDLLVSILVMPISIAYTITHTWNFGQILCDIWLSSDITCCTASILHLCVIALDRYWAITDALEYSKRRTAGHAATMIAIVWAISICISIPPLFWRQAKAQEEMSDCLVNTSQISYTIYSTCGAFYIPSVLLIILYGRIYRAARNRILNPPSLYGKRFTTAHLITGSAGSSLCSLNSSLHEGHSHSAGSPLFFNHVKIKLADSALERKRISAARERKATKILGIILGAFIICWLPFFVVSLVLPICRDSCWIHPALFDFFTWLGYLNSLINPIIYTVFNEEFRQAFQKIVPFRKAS
Sequence of 5-HT1e (P28566 whole entry, species assumed): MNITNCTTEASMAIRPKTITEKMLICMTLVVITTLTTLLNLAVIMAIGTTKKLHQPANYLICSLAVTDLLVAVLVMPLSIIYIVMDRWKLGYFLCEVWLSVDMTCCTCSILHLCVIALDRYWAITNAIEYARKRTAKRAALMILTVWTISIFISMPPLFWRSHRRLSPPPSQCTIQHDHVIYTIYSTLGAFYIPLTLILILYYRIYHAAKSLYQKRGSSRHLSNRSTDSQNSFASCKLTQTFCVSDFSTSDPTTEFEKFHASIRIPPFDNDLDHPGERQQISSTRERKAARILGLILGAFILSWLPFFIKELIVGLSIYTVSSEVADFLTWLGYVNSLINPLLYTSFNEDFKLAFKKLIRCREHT
T2 sequence (P41595 whole entry): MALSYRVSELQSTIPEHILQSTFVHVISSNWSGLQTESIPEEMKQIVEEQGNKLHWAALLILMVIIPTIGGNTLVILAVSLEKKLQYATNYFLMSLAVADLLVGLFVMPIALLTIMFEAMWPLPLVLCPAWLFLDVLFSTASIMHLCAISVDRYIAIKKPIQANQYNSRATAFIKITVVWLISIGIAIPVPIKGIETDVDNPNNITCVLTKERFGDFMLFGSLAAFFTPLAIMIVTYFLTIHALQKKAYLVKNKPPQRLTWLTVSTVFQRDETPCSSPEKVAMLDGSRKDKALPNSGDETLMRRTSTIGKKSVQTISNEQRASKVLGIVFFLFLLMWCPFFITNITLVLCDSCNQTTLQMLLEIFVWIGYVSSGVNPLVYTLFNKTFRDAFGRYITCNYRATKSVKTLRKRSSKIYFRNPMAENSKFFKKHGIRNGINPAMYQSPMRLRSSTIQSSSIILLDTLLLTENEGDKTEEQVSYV

`COc1cc([N+](=O)[O-])c(OC)cc1CCNCc1ccccc1` [25N-NB (2), Benzyl[2-(2,5-dimethoxy-4-nitrophenyl)ethyl]amine] was tested, and the “5-HT2A/5-HT2c Selectivity Factor ΔLog(Emax/EC50)” value (5-HT2A [1]) was 23.6, the EC50 (5-HT2A [2]) was 1.27 nM and the Emax (5-HT2A [2]) was 86 ± 1%. The “5-HT2B EC50, nM” value (5-HT2B [3]) was “No activity”, the Emax (5-HT2B [3]) was < 10% and the EC50 (5-HT2C [4]) was 26.2 nM. The Emax (5-HT2C [4]) was 75 ± 1%.

With `COc1cc([N+](=O)[O-])c(OC)cc1CCNCc1cccc(O)c1` [25N-NB-3-OH (21), 3-({[2-(2,5-dimethoxy-4-nitrophenyl)ethyl]amino}methyl)phenol] the “5-HT2A/5-HT2c Selectivity Factor ΔLog(Emax/EC50)” value (5-HT2A [1]) was 92.6, the Ki (5-HT1A) was 1860 nM and the Ki (5-HT1B) was > 10000 nM. The Ki (5-HT1D) was > 10000 nM, the Ki (5-HT1e) was > 10000 nM and the Ki (5-HT2A [5]) was 14.5 nM. The Ki (5-HT3) was > 10000 nM, the EC50 (5-HT2A [2]) was 3.32 nM and the Emax (5-HT2A [2]) was 55 ± 2%. For the same compound, the “5-HT2B EC50, nM” value (5-HT2B [3]) was “No activity”, the Emax (5-HT2B [3]) was < 10% and the EC50 (5-HT2C [4]) was 49.1 nM. The Emax (5-HT2C [4]) was 53 ± 4%, the Ki (5-HT2B [6]) was 35.5 nM and the Ki (5-HT2C [7]) was 83.2 nM.

`COc1cc([N+](=O)[O-])c(OC)cc1CCNCc1ccccc1[N+](=O)[O-]` [25N-NBNO2 (15), [2-(2,5-dimethoxy-4-nitrophenyl)ethyl][(2-nitrophenyl)methyl]amine] was tested, and the “5-HT2A/5-HT2c Selectivity Factor ΔLog(Emax/EC50)” value (5-HT2A [1]) was 66.8, the Ki (5-HT1A) was 1950 nM and the Ki (5-HT1B) was > 10000 nM. For the same compound, the Ki (5-HT1D) was > 10000 nM, the Ki (5-HT1e) was > 10000 nM and the Ki (5-HT2A [5]) was 81.3 nM. For the same compound, the Ki (5-HT3) was > 10000 nM, the EC50 (5-HT2A [2]) was 15.6 nM and the “5-HT2A Emax % 5-HT” value (5-HT2A [2]) was 64 ± 2 % 5-HT. For the same compound, the Emax (5-HT2A [2]) was ≤ 77%, the “5-HT2B EC50, nM” value (5-HT2B [3]) was “No activity” and the Emax (5-HT2B [3]) was < 10%. It also gave an EC50 (5-HT2C [4]) of 583 nM, an Emax (5-HT2C [4]) of 36 ± 2% and a Ki (5-HT2B [6]) of 191 nM. For the same compound, the Ki (5-HT2C [7]) was 282 nM.

For `COc1cc([N+](=O)[O-])c(OC)cc1CCNCc1cccc(F)c1OC` [25N-NB-2-MeO-3-F (19), [2-(2,5-dimethoxy-4-nitrophenyl)ethyl][(3-fluoro-2-methoxyphenyl)methyl]amine], the “5-HT2A/5-HT2c Selectivity Factor ΔLog(Emax/EC50)” value (5-HT2A [1]) was 33.8, the Ki (5-HT1A) was 1000 nM and the Ki (5-HT1B) was > 10000 nM. For the same compound, the Ki (5-HT1D) was > 10000 nM, the Ki (5-HT1e) was > 10000 nM and the Ki (5-HT2A [5]) was 7.41 nM. For the same compound, the Ki (5-HT3) was > 10000 nM, the EC50 (5-HT2A [2]) was 2.35 nM and the Emax (5-HT2A [2]) was 83 ± 1%. For the same compound, the “5-HT2B EC50, nM” value (5-HT2B [3]) was “No activity”, the Emax (5-HT2B [3]) was < 10% and the EC50 (5-HT2C [4]) was 74.5 nM. The Emax (5-HT2C [4]) was 77 ± 2%, the Ki (5-HT2B [6]) was 25.1 nM and the Ki (5-HT2C [7]) was 40.7 nM.

With `COc1cc([N+](=O)[O-])c(OC)cc1CCNCc1ccccc1C(F)(F)F` [25N-NBCF3 (14), [2-(2,5-dimethoxy-4-nitrophenyl)ethyl]({[2-(trifluoromethyl)phenyl]methyl}) amine] the “5-HT2A/5-HT2c Selectivity Factor ΔLog(Emax/EC50)” value (5-HT2A [1]) was 85.5, the Ki (5-HT1A) was 1070 nM and the Ki (5-HT1B) was > 10000 nM. For the same compound, the Ki (5-HT1D) was > 10000 nM, the Ki (5-HT1e) was > 10000 nM and the Ki (5-HT2A [5]) was 20 nM. For the same compound, the Ki (5-HT3) was > 10000 nM, the EC50 (5-HT2A [2]) was 12.3 nM and the “5-HT2A Emax % 5-HT” value (5-HT2A [2]) was 77 ± 1 % 5-HT. For the same compound, the Emax (5-HT2A [2]) was ≤ 77%, the “5-HT2B EC50, nM” value (5-HT2B [3]) was “No activity” and the Emax (5-HT2B [3]) was < 10%. It also gave an EC50 (5-HT2C [4]) of 271 nM, an Emax (5-HT2C [4]) of 20 ± 2% and a Ki (5-HT2B [6]) of 58.9 nM. The Ki (5-HT2C [7]) was 102 nM.
